Measurements taken from patent US11447517B2, “Galactoside inhibitor of galectins” (GALECTO BIOTECH AB, priority 2018, dated 2022).

What was measured:
[1] = molecular target: galectin-3 (Homo sapiens (Human), UniProt P17931); experiment: Fluorescence anisotropy assay, inhibition of galectin / fluorescein tagged saccharide probe interaction; type: binding
Method: Evaluation of Kd Values The affinity of Example 1-71 for galectins were determined by a fluorescence anisotropy assay where the compound was used as an inhibitor of the interaction between galectin and a fluorescein tagged saccharide probe as described Sörme, P., Kahl-Knutsson, B., Huflejt, M., Nilsson, U. J., and Leffler H. (2004) Fluorescence polarization as an analytical tool to evaluate galectin-ligand interactions. Anal. Biochem. 334: 36-47, (Sörme et al., 2004) and Monovalent interactions of Galectin-1 By Salomonsson, Emma; Larumbe, Amaia; Tejler, Johan; Tullberg, Erik; Rydberg, Hanna; Sundin, Anders; Khabut, Areej; Frejd, Torbjorn; Lobsanov, Yuri D.; Rini, James M.; et al, From Biochemistry (2010), 49(44), 9518-9532, (Salomonsson et al., 2010). […] 100 nM albumin was included as a carrier to prevent protein loss at such low concentration of galectin.

[2] = Uptake over CACO-2 cell monolayers; type: in vitro ADME; settings: human; for Papp A→B: apical to basolateral; for Papp B→A: basolateral to apical; for efflux ratio: read-out: Efflux ratio Papp (B > A/A > B)
Source text: Uptake of a drug over the intestine can be predicted measuring the uptake over a monolayer of CACO-2 cells measured as Papp(10^-6 cm/s). […] By introduction of small alkyl substituents to the galactoside 2-OH such as compounds of formula (1) results in low or no efflux combined with a high uptake (Papp >10 10^-6 cm/s) over CACO-2 cells from the apical to the basolateral side of the cells.

galectin-3, sequence (P17931 whole entry): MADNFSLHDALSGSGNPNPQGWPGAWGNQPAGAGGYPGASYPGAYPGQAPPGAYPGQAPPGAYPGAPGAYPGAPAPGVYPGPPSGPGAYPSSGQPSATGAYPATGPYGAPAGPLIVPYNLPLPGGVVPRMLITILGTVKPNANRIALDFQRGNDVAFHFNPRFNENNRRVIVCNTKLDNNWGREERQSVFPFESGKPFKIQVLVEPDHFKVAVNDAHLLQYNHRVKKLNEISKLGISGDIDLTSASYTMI

Row | Kd [1] [nM] | Papp A→B [2] [×10⁻⁶ cm/s] | Papp B→A [2] [×10⁻⁶ cm/s] | efflux ratio [2] | SMILES
1 | 39 | 26 | 34 | 1.3 | CO[C@@H]1[C@@H](n2cc(-c3ccc(C)c(F)n3)nn2)[C@@H](O)[C@@H](CO)O[C@@H]1Sc1cncc(Cl)c1 [Example 43, 5-Chloropyridin-3-yl 3-deoxy-3-[4-(6-fluoro-5-methylpyridin-2-yl)-1H-1,2,3-triazol-1-yl]-2-O-methyl-1-thio-α-D-galactopyranoside]
2 | – | 4 | 36 | 9 | OCC1O[C@H](Sc2cncc(Cl)c2)C(O)[C@@H](n2cc(-c3cc(F)c(F)c(F)c3)nn2)[C@H]1O (some centres unmarked)
3 | 45 | 31 | 45 | 1.4 | CO[C@@H]1[C@@H](n2cc(-c3ccc(C)c(F)c3)nn2)[C@@H](O)[C@@H](CO)O[C@@H]1Sc1cncc(Cl)c1 [Example 35, 5-Chloropyridin-3-yl 3-deoxy-3-[4-(3-fluoro-4-methylphenyl)-1H-1,2,3-triazol-1-yl]-2-O-methyl-1-thio-α-D-galactopyranoside]
4 | 26 | 28 | 32 | 1.1 | CO[C@@H]1[C@@H](n2cc(-c3ccc(C)c(F)c3)nn2)[C@@H](O)[C@@H](CO)O[C@@H]1Sc1cncc(Br)c1 [Example 36, 5-Bromopyridin-3-yl 3-deoxy-3-[4-(3-fluoro-4-methylphenyl)-1H-1,2,3-triazol-1-yl]-2-O-methyl-1-thio-α-D-galactopyranoside]
5 | 18 | – | – | – | CCO[C@@H]1[C@@H](n2cc(-c3cc(F)c(F)c(F)c3)nn2)[C@@H](O)[C@@H](CO)O[C@@H]1Sc1cc(Br)ccc1C(=O)N1CCC1 [Example 65, 2-(N-azetidinyl-carbonyl)-5-bromophenyl 3-deoxy-3-[4-(3,4,5-trifluorophenyl)-1H-1,2,3-triazol-1-yl]-2-O-ethyl-1-thio-α-D-galactopyranoside]
6 | 71 | – | – | – | CNCCO[C@@H]1[C@@H](n2cc(-c3cc(F)c(F)c(F)c3)nn2)[C@@H](O)[C@@H](CO)O[C@@H]1Sc1cncc(Br)c1 [Example 20, 5-Bromopyridin-3-yl 3-deoxy-3-[4-(3,4,5-trifluorophenyl)-1H-1,2,3-triazol-1-yl]-2-O-[2-(methylamino)ethyl]-1-thio-α-D-galactopyranoside]
7 | 36 | – | – | – | CO[C@@H]1[C@@H](n2cc(-c3cc(F)c(F)c(F)c3)nn2)[C@@H](O)[C@@H](CO)O[C@@H]1Sc1cc(Cl)cnc1C1=CCNCC1 [Example 28, 5-Chloro-2-(1,2,3,6-tetrahydropyridin-4-yl)pyridin-3-yl 3-deoxy-3-[4-(3,4,5-trifluorophenyl)-1H-1,2,3-triazol-1-yl]-2-O-methyl-1-thio-α-D-galactopyranoside]
8 | – | 3 | 30 | 10 | Cc1ccc(-c2cn([C@@H]3C(O)[C@@H](Sc4cc(Cl)cnc4C#N)OC(CO)[C@@H]3O)nn2)cc1F (some centres unmarked)
9 | 28 | – | – | – | C#Cc1cnc(C#N)c(S[C@H]2O[C@H](CO)[C@H](O)[C@H](n3cc(-c4cc(F)c(Cl)c(F)c4)nn3)[C@H]2OC)c1 [Example 56, 2-Cyano-5-ethynylpyridin-3-yl 3-[4-(4-chloro-3,5-difluorophenyl)-1H-1,2,3-triazol-1-yl]-3-deoxy-2-O-methyl-1-thio-α-D-galactopyranoside]
10 | 210 | – | – | – | CO[C@@H]1[C@@H](n2cc(-c3cc(F)c(F)c(F)c3)nn2)[C@@H](O)[C@@H](CO)O[C@@H]1Sc1cc(-c2nccs2)cnc1-c1nccs1 [Example 32, 2,5-Bis(thiazol-2-yl)pyridin-3-yl 3-deoxy-3-[4-(3,4,5-trifluorophenyl)-1H-1,2,3-triazol-1-yl]-2-O-methyl-1-thio-α-D-galactopyranoside]
11 | 50 | – | – | – | CO[C@@H]1[C@@H](n2cc(-c3cc(F)c(C)c(F)c3)nn2)[C@@H](O)[C@@H](CO)O[C@@H]1Sc1cc(Cl)ccc1C#N [Example 14, 5-Chloro-2-cyanophenyl 3-deoxy-3-[4-(3,5-difluoro-4-methylphenyl)-1H-1,2,3-triazol-1-yl]-2-O-methyl-1-thio-α-D-galactopyranoside]
12 | 35 | – | – | – | CO[C@@H]1[C@@H](n2cc(-c3cc(F)c(F)c(F)c3)nn2)[C@@H](O)[C@@H](CO)O[C@@H]1Sc1cc(Cl)cnc1C#N [Example 46, 5-Chloro-2-cyanopyridin-3-yl 3-deoxy-3-[4-(3,4,5-trifluorophenyl)-1H-1,2,3-triazol-1-yl]-2-O-methyl-1-thio-α-D-galactopyranoside]
13 | 14 | – | – | – | COC1[C@@H](Sc2cc(Cl)ccc2C(=O)N(C)C)OC(CO)[C@H](O)[C@@H]1n1cc(-c2cc(F)c(Cl)c(F)c2)nn1 (stereo partly drawn) [Example 4, 4-Chloro-N,N-dimethyl-benzamide-2-yl 3-[4-(4-chloro-3,5-difluorophenyl)-1H-1,2,3-triazol-1-yl]-3-deoxy-2-O-methyl-1-thio-α-D-galactopyranoside]
14 | 76 | – | – | – | CO[C@@H]1[C@@H](n2cc(-c3cc(F)c(F)c(F)c3)nn2)[C@@H](O)[C@@H](CO)O[C@@H]1Sc1cncc(C#N)c1 [Example 59, 5-Cyanopyridin-3-yl 3-deoxy-3-[4-(3,4,5-trifluorophenyl)-1H-1,2,3-triazol-1-yl]-2-O-methyl-1-thio-α-D-galactopyranoside]
15 | 33 | – | – | – | COC1[C@@H](Sc2cc(Cl)cnc2N2CC3(COC3)C2)OC(CO)[C@H](O)[C@@H]1n1cc(-c2cc(F)c(F)c(F)c2)nn1 (stereo partly drawn) [Example 10, 5-Chloro-2-{N-(2-oxa)-6-azaspiro[3.3]heptanyl}-pyridin-3-yl 3-deoxy-3-[4-(3,4,5-trifluorophenyl)-1H-1,2,3-triazol-1-yl]-2-O-methyl-1-thio-α-D-galactopyranoside]
16 | 280 | – | – | – | CO[C@@H]1[C@@H](n2cc(-c3cc(F)c(Cl)c(F)c3)nn2)[C@@H](O)[C@@H](CO)O[C@@H]1Sc1cnc(C(F)(F)F)c(C)c1 [Example 39, 6-Trifluoromethyl-5-methylpyridin-3-yl 3-[4-(4-chloro-3,5-difluorophenyl)-1H-1,2,3-triazol-1-yl]-3-deoxy-2-O-methyl-1-thio-α-D-galactopyranoside]
17 | 80 | – | – | – | CO[C@@H]1[C@@H](n2cc(-c3cc(F)c(Cl)c(F)c3)nn2)[C@@H](O)[C@@H](CO)O[C@@H]1Sc1cncc(C#N)c1 [Example 60, 5-Cyanopyridin-3-yl 3-[4-(4-chloro-3,5-difluorophenyl)-1H-1,2,3-triazol-1-yl]-3-deoxy-2-O-methyl-1-thio-α-D-galactopyranoside]
18 | – | 5 | 46 | 9 | N#Cc1ncc(Cl)cc1S[C@H]1OC(CO)[C@H](O)[C@H](n2cc(-c3cc(F)c(Cl)c(F)c3)nn2)C1O (some centres unmarked)
19 | 250 | – | – | – | CO[C@@H]1[C@@H](n2cc(-c3cc(F)c(Cl)c(F)c3)nn2)[C@@H](O)[C@@H](CO)O[C@@H]1Sc1ccc(Cl)c(Cl)c1 [Example 71, 3,4-Dichlorophenyl 3-[4-(4-chloro-3,5-difluorophenyl)-1H-1,2,3-triazol-1-yl]-3-deoxy-2-O-methyl-1-thio-α-D-galactopyranoside]
20 | 34 | – | – | – | CO[C@@H]1[C@@H](n2cc(-c3cc(F)c(Cl)c(F)c3)nn2)[C@@H](O)[C@@H](CO)O[C@@H]1Sc1cc(Cl)cnc1C#N [Example 47, 5-Chloro-2-cyanopyridin-3-yl 3-[4-(4-chloro-3,5-difluorophenyl)-1H-1,2,3-triazol-1-yl]-3-deoxy-2-O-methyl-1-thio-α-D-galactopyranoside]
